US20160243164A1, “ANTIMICROBIAL SILVER HYDROGEL COMPOSITION FOR THE TREATMENT OF BURNS AND WOUNDS” (CELACARE TECHNOLOGIES, LLC, priority 2011, published 2016)
≈ marks a conversion by molar mass, not a printed value.

Columns and labels:
[1] = topical exposure for 4 hours; cited from earlier work
[2] = tested on: Candida albicans ATCC 10231; experiment: microtube dilution MIC; type: cell-based; details: ATCC10231, Example 9, 48 hrs incubation
Protocol: (§1) In brief, a standard inoculum (100 μL of a 1:200 dilution of a 0.5 MacFarland turbidity standard) of each microorganism was prepared in standard growth media and added to equal volumes of two-fold serial dilutions of SC and SC-Gel. MICs were determined visually as the highest dilution of SC, or SC-Gel, that inhibited growth after incubating the mixtures overnight at 35° C., except for Candida albicans, which required 48 hrs incubation. […] The MIC dilution was converted to μg/mL by multiplying the neat drug (Ag^+) concentration by the dilution appropriate dilution factor.
In brief, a standard inoculum (100 μL of a 1:200 dilution of a 0.5 MacFarland turbidity standard) of each microorganism was prepared in standard growth media and added to equal volumes of two-fold serial dilutions of SC and SC-Gel. MICs were determined visually as the highest dilution of SC, or SC-Gel, that inhibited growth after incubating the mixtures overnight at 35° C., except for C. albicans, which required 48 hrs incubation. […] The MIC dilution was converted to μg/mL by multiplying the neat drug (Ag^+) concentration by the dilution appropriate dilution factor.

[3] = tested on: Escherichia coli ATCC 25922; experiment: microtube dilution MIC; type: cell-based; details: Example 13; E. coli ATCC 25922
Protocol: as §1
The method described in Example 8 for minimum inhibitory concentration (MIC) was utilized for evaluation of activity of the compositions against Staphylococcus aureus and Streptococcus pyogenes (Gram-positive cocci) and Pseudomonas aeruginosa and Escherichia coli (Gram-negative rod) organisms.

[4] = tested on: Pseudomonas aeruginosa ATCC 27853; experiment: microtube dilution MIC; type: cell-based; details: Example 13; P. aeruginosa ATCC 27853
Protocol: as §1
In brief, a standard inoculum (100 μL of a 1:200 dilution of a 0.5 MacFarland turbidity standard) of each microorganism was prepared in standard growth media and added to equal volumes of two-fold serial dilutions of SC and SC-Gel. MICs were determined visually as the highest dilution of SC, or SC-Gel, that inhibited growth after incubating the mixtures overnight at 35° C., except for C. albicans, which required 48 hrs incubation. […] The MIC dilution was converted to μg/mL by multiplying the neat drug (Ag^+) concentration by the dilution appropriate dilution factor. […]

Structure (SMILES): O=C(O)CN(CCN(CC(=O)O)CC(=O)O)CC(=O)O.[Na].[Na] [Disodium EDTA, disodium ethylenediaminetetraacetic acid]
- reactivity in human patch test [1]: no reactivity

Structure (SMILES): Clc1ccc(COC(Cn2ccnc2)c2ccc(Cl)cc2Cl)c(Cl)c1 (stereo not shown) [MZL, Miconazole]
- MIC [2]: 0.49 µg/mL (≈ 1.18 µM)

Structure (SMILES): O=C([O-])CC(O)(CC(=O)[O-])C(=O)[O-].[Ag+].[Ag+].[Ag+] [SC Liquid, silver citrate]
- Minimal Inhibitory Concentration (MIC) [3]: 7.5 µg/mL
- Minimal Inhibitory Concentration (MIC) [4]: 11.25 µg/mL
